Experimental data reported in patent US8415391B2, “3.2.1-bicyclo-octene and -octane compounds” (International Flavors & Fragrances Inc., priority 2010, dated 2013).

Legend:
[1] = Sweat malodor coverage, panel sniff test with isovaleric acid model; design: species or system human; details: compound 10% in solvent; 1 h equilibration in 8 oz jar; 15-18 panelists; scale 1 (No Coverage) to 5 (Excellent Coverage)
Procedure: (§1) It is known that the perspirative malodors of human body, particularly sweat, are associated with the production of several unpleasant smelling organic acids, particularly isovaleric acid (“IVA”). The commercial sample of this malodorous material (commercially available at Sigma-Aldrich Inc.) was thus used as a model compound to assess the effectiveness of sweat malodor counteractants. The mold/mildew malodor model was prepared based on applicant's proprietary formulations for assessing the effectiveness of mold/mildew malodor counteractants.
(§2) Two aluminum dishes were placed in an 8 oz glass jar. A malodor material was pipetted into one aluminum dish, and a compound of the present invention diluted in a solvent (10%) or a solvent alone control was pipetted into the other aluminum dish. The jar was then capped and the samples were allowed to equilibrate for one hour before the testing.
(§3) Test samples were presented in a blind and random order to 15-18 internal panelists (consisting of men/women with an age range of 25 to 55). However, different odor samples were arranged in an alternative order (for example, sweat, mold/mildew, sweat, mold/mildew, and etc.).
(§4) The panelists were instructed to take the steps of i) sniff jars containing only the malodor materials for familiarization prior to the testing; ii) uncap a jar; iii) place their noses at a distance of about 3-4 inches above the opening; iv) take short sniffs for 3 seconds; and v) provide a rank of the malodor coverage using an intensity scale of 1 to 5, where 1 represents “No Coverage”, 3 represents “Moderate Coverage”, and 5 represents “Excellent Coverage”. The means for each sample was then calculated.

[2] = Mold/mildew malodor coverage, panel sniff test with proprietary malodor model; design: species or system human; details: compound 10% in solvent; 1 h equilibration in 8 oz jar; 15-18 panelists; scale 1 (No Coverage) to 5 (Excellent Coverage)
Procedure: as §1, §2, §3, §4

[3] = Vapor pressure; format: physicochemical

| Structure (SMILES) | Sweat Malodor, mean rank of malodor coverage [1] | Mold/Mildew Malodor, mean rank of malodor coverage [2] | Vapor Pressure [3] [µg/L] |
| --- | --- | --- | --- |
| CC1=CCC2(C)CCC1C2 (stereo not drawn) [Structure I, 2,5-dimethyl-bicyclo[3.2.1]oct-2-ene] | 3.90 | 3.32 | 28652 |
| CC(=O)OC1CC2(C)CCC(C2)C1C (stereo not drawn) [Structure IV, acetic acid 1,4-dimethyl-bicyclo[3.2.1]oct-3-yl ester] | 3.09 | 2.96 | 1091 |
| COC(=O)OC1CC2(C)CCC(C2)C1C (stereo not drawn) [Structure V, carbonic acid 1,4-dimethyl-bicyclo[3.2.1]oct-3-yl ester methyl ester] | 2.42 | 2.49 | 406 |
